Results from patent US11497736B2, “Compositions for an orally active 1,2,4-oxadiazole for the treatment of disease” (PTC Therapeutics, Inc., priority 2005, dated 2022).

Columns and labels:
Format in all cases: in vivo, human
[1] = Patient-reported changes in cystic fibrosis symptoms, asked by trial investigators; details: of the 15 patients in the interim analysis
Description: (§1) 3-[5-(2-Fluoro-phenyl)-[1,2,4]oxadiazol-3-yl]-benzoic acid was provided in a formulation described herein.
In addition, although changes in patient's symptoms were not formally measured through the use of a quality-of-life questionnaire, trial investigators were requested to ask about changes in patients' cystic fibrosis symptoms. In the 15 patients included in the interim analysis, 6 reported general improvements in well being, 6 reported decrease in cough and 10 reported decreased mucus thickness and easier clearing of mucus.

[2] = Body weight, Phase 2 cystic fibrosis study
Description: as §1
(§2) Statistically significant results and positive trends for secondary endpoints were also observed. In particular, although the trials were not been powered to detect statistical significant changes in secondary endpoints, statistically significant improvements from study entry to the end of the higher-dose treatment cycle in the patients' mean FEV1, FVC and weight were observed.

CFTR = experiment: Transepithelial potential difference (TEPD) chloride conductance, Phase 2 study in nonsense-mutation-mediated cystic fibrosis; details: for Mean change in TEPD chloride conductance: 15 CF patients; for Number of patients with improvement in TEPD chloride conductance to normal / Number of patients with ≥−5 mV improvement in TEPD chloride conductance: patients/total
Procedure: The measurement of transepithelial potential difference (TEPD), also known as nasal potential difference, provides a sensitive evaluation of sodium and chloride transport directly in secretory epithelial cells via assessment of transepithelial bioelectric properties (Knowles et al., 1981, N. Engl. J. Med. 305(25):1489-95; Knowles et al., 1995, Hum. Gene Ther. 6:445). TEPD is performed in each nostril using standardized techniques (Standaert et al., 2004, Ped. Pulm. 37:385-92). In the procedure, a small plastic catheter is used to assess electrical differences across the outer cell membrane of nasal mucosa cells in the nostril. TEPD values are expressed in millivolts, or mV. A chloride conductance equal to or more electrically negative than −5.0 mV is generally considered to be in the normal range. […] TEPD assessments can also be made on rectal epithelial cells and lower respiratory epithelial cells. Because of the role of the CFTR protein in transporting chloride ions across cell membranes, and because of the absence of this protein, cystic fibrosis patients have an abnormal TEPD chloride conductance. As an endpoint, TEPD has the advantage that it can detect chloride transport changes that are a quantitative integration of the presence, functional activity, and apical location of the CFTR in airway cells. Furthermore, it is a direct measure of CFTR activity that is not likely to be affected by supportive or palliative treatments for CF (with the possible exception of systemically administered aminoglycoside antibiotics). Of importance is evidence that TEPD values can correlate with the degree of pulmonary dysfunction and radiographic abnormality (Ho et al., 1997, Eur. Respir. J. 10(9):2018-22; Fajac et al., 1998, Eur. Respir. J 12(6):1295-300; Sermet-Gaudelus et al., 2005, Am. J. Respit. Crit. Care Med. 171(9):1026-1031). […] Under baseline conditions, TEPD-assessed chloride channel activity is very unlikely to normalize spontaneously in patients with CF; any observed improvements in TEPD-assessed chloride channel activity are expected to specifically denote pharmacological activity of CFTR-correcting therapies. Accordingly, it has become the primary endpoint in Phase 1-2 pharmacological and gene replacement studies aimed at correcting CFTR dysfunction (Peckham et al., 1995, AJ. Clin Sci (London). 89(3):277-84; Wilschanski et al., 2003, N. Engl. J Med. 349(15):1433-41).
as §1
(§3) Clinical endpoints were evaluated using the procedures set forth above. TEPD measurements were made prior to treatment and on days 14 and 28 of Cycle 1 and Cycle 2. Nasal mucosal curettage was collected from each nostril of each patient prior to treatment and on days 14 and 28 of Cycle 1 and Cycle 2. Pulmonary tests, including FEV1, FVC and MEF25-75, were measured prior to treatment, on day −1 of Cycle 2, on day 13 or 14 of Cycle 1 and day 13 or 14 of Cycle 2 in the study being conducted in Israel and the same parameters were measured prior to treatment and on day 13 or 14 of Cycle 2 in the study being conducted in the United States.
This is the average of the changes from the beginning to the end of the treatment period in TEPD chloride conductance within each study participant. For example, if the changes in TEPD chloride conductance within each of three participants were −7.0 mV, −2.0 mV and −9.0 mV, the mean change in TEPD chloride conductance among these participants would be −6.0 mV.
For purposes of the trials, a chloride conductance response is defined as a TEPD chloride conductance improvement of at least −5 mV. For example, in a patient with a TEPD chloride conductance value of +1.0 mV at baseline and a TEPD chloride conductance value of −6.0 mV at the end of treatment, the TEPD chloride conductance improvement would be −7.0 mV, representing a chloride conductance response. […]

[3] = Pulmonary function tests (FEV1, FVC) by spirometry, Phase 2 cystic fibrosis study
Procedure: Pulmonary function tests, including FEV1, FVC, and MEF25-75, are measured using standard spirometry procedures. Assessments of pulmonary function (including MEF25-75, FVC, and, particularly, FEV1) have been acknowledged as definitive clinical endpoints in patients with CF (Food and Drug Administration, 62nd Anti-Infective Drugs Advisory Committee. Discussion of NDA for tobramycin solution for inhalation (Tobi®) for the management of cystic fibrosis patients. November, 1997; Tiddens, 2002, Pediatr. Pulmonol. 34(3): 228-31). […] Pulmonary function testing is simple to administer (even in patients as young as 7 years of age), and uses standardized equipment and techniques that are widely available. Interpretation is performed using well-established normative equations that account for patient age, height, and gender.
as §1, §3, §2

[4] = Change from study entry to end of higher dose treatment
[5] = Best of nostrils, higher dose level
[6] = Best of nostrils, lower dose level
[7] = Mean of both nostrils, higher dose level
[8] = Mean of both nostrils, lower dose level

SMILES: O=C(O)c1cccc(-c2noc(-c3ccccc3F)n2)c1 [3-[5-(2-Fluoro-phenyl)-[1,2,4]oxadiazol-3-yl]-benzoic acid]
- Patients who reported decrease in cough [1]: 6
- Patients who reported decreased mucus thickness and easier clearing of mucus [1]: 10
- Patients who reported general improvements in well being [1]: 6
- Weight change [2, 4]: 0.7 kg
- Weight ([2]; End of higher dose treatment, study entry 58.3 kg): 59.0 kg
- Number of patients with improvement in TEPD chloride conductance to normal (percentage) (CFTR; [5]): (53%)
- Number of patients with ≥−5 mV improvement in TEPD chloride conductance (percentage) (CFTR; [5]): (53%)
- Mean change in TEPD chloride conductance (CFTR; Best of nostrils, higher dose level (10, 10, 20 mg/kg TID oral, 14 days)): −6.4 mV
- Number of patients with improvement in TEPD chloride conductance to normal (CFTR; [5]): 8/15
- Number of patients with ≥−5 mV improvement in TEPD chloride conductance (CFTR; [5]): 8/15
- Number of patients with improvement in TEPD chloride conductance to normal (percentage) (CFTR; [6]): (53%)
- Number of patients with ≥−5 mV improvement in TEPD chloride conductance (percentage) (CFTR; [6]): (60%)
- Mean change in TEPD chloride conductance (CFTR; Best of nostrils, lower dose level (4, 4, 8 mg/kg TID oral, 14 days)): −9.0 mV
- Number of patients with improvement in TEPD chloride conductance to normal (CFTR; [6]): 8/15
- Number of patients with ≥−5 mV improvement in TEPD chloride conductance (CFTR; [6]): 9/15
- Number of patients with improvement in TEPD chloride conductance to normal (percentage) (CFTR; [7]): (47%)
- Number of patients with ≥−5 mV improvement in TEPD chloride conductance (percentage) (CFTR; [7]): (47%)
- Mean change in TEPD chloride conductance (CFTR; Mean of both nostrils, higher dose level (10, 10, 20 mg/kg TID oral, 14 days)): −4.4 mV
- Number of patients with improvement in TEPD chloride conductance to normal (CFTR; [7]): 7/15
- Number of patients with ≥−5 mV improvement in TEPD chloride conductance (CFTR; [7]): 7/15
- Number of patients with improvement in TEPD chloride conductance to normal (percentage) (CFTR; [8]): (40%)
- Number of patients with ≥−5 mV improvement in TEPD chloride conductance (percentage) (CFTR; [8]): (40%)
- Mean change in TEPD chloride conductance (CFTR; Mean of both nostrils, lower dose level (4, 4, 8 mg/kg TID oral, 14 days)): −6.7 mV
- Number of patients with improvement in TEPD chloride conductance to normal (CFTR; [8]): 6/15
- Number of patients with ≥−5 mV improvement in TEPD chloride conductance (CFTR; [8]): 6/15
- Mean FEV1 change (percentage of normal for gender, age and height) [3, 4]: 3.3%
- Mean FVC change (percentage of normal for gender, age and height) [3, 4]: 4.9%
- Mean FEV1 (percentage of normal for gender, age and height) ([3]; End of higher dose treatment, study entry 65.8%): 69.1%
- Mean FVC (percentage of normal for gender, age and height) ([3]; End of higher dose treatment, study entry 80.2%): 85.1%
